For assay [1], the target named is 5-hydroxytryptamine receptor 2A (Homo sapiens, UniProt P28223).
Description: Binding affinity towards serotonin 5-hydroxytryptamine 2A receptor
Assay [2] concerns the target T1, 5-hydroxytryptamine receptor 2C (Homo sapiens, UniProt P28335).
T1 sequence (P28335 whole entry): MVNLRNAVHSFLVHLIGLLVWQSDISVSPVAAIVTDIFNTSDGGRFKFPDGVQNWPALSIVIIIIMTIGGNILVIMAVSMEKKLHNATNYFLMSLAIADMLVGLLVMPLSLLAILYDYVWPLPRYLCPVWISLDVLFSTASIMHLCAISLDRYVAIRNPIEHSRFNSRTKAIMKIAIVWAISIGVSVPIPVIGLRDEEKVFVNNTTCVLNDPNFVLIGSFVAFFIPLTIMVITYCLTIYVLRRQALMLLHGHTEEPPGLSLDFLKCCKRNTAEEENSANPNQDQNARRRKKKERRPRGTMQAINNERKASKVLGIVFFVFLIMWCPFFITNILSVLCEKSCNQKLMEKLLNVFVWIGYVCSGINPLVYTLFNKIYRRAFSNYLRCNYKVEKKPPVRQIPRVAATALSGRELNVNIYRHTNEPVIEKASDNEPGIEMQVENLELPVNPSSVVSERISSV
Description: Binding affinity towards serotonin 5-hydroxytryptamine 2C receptor

SMILES strings stand for the structures.

5-hydroxytryptamine receptor 2A, sequence (P28223 whole entry): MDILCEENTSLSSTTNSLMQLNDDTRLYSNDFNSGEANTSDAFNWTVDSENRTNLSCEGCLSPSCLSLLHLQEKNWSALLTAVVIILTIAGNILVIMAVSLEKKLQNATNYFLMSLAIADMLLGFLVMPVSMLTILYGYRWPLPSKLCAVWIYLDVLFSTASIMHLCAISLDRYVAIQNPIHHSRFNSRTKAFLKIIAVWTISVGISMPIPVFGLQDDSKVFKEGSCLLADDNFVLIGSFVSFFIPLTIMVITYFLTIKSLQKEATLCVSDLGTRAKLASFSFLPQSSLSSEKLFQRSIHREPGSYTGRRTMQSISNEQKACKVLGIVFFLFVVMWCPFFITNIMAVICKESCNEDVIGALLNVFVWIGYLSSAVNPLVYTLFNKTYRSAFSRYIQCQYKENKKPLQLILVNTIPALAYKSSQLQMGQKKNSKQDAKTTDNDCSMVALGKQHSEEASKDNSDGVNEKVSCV

As to `O=C1CC(CN2CCC(c3noc4cc(F)ccc34)CC2)Cc2ccccc21` (racemic), the Ki (in general, the equilibrium dissociation constant of an inhibitor or competing ligand from its target) was 2.69 nM in assay [1] and 129 nM in assay [2].
Take `COc1ccc2c(c1)CC(CN1CCN(c3ccccn3)CC1)CC2=O` (racemic): the results for the Ki in assay [1] and in assay [2] were 692 nM and 4570 nM, respectively.
Regarding `COc1ccc2c(c1)CC(CN1CCN(c3ccccc3OC)CC1)CC2=O` (racemic), the Ki in assay [1] is 891 nM; in assay [2], 46.8 nM.
In assay [1], `COc1cc2c(cc1OC)C(=O)CC(CN1CCC(c3noc4cc(F)ccc34)CC1)C2` (racemic) had an inhibition constant Ki of 9.55 nM.
Take `COc1ccc2c(c1)CC(CN1CCC(c3noc4cc(F)ccc34)CC1)CC2=O` (single isomer, unassigned; (-)): the Ki in assay [1] was 26.3 nM; in assay [2], 832 nM.
`COc1cc2c(cc1OC)C(=O)CC(CN1CCC(C(=O)c3ccc(F)cc3)CC1)C2` (single isomer, unassigned; (-)): the results for the Ki in assay [1] and in assay [2] were 5.62 nM and 166 nM, respectively.
Regarding `COc1cc2c(cc1OC)C(=O)CC(CN1CCC(C(=O)c3ccc(F)cc3)CC1)C2` (single isomer, unassigned; (+)), the Ki in assay [1] is 43.7 nM; in assay [2] it was 575 nM.
Turning to `COc1cc2c(cc1OC)C(=O)CC(CN1CCC(C(=O)c3ccc(F)cc3)CC1)C2` (racemic), the Ki in assay [1] was 6.03 nM; in assay [2], 83.2 nM.
In turn, `COc1ccccc1N1CCN(CC2CC(=O)c3ccccc3C2)CC1` (racemic) showed a Ki in assay [1] of 513 nM.
`COc1ccc2c(c1)CC(CN1CCC(C(=O)c3ccc(F)cc3)CC1)CC2=O` (single isomer, unassigned; (-)): the figures for the inhibitory constant (Ki) in assay [1] and in assay [2] were 16.2 nM and 977 nM, respectively.
As for `O=C1CC(CN2CCC(C(=O)c3ccc(F)cc3)CC2)Cc2ccccc21` (racemic), the inhibition constant (Ki) in assay [1] is 13.2 nM; in assay [2], 501 nM.
With `COc1cc2c(cc1OC)C(=O)CC(CN1CCC(c3noc4cc(F)ccc34)CC1)C2` (stereo in doubt; (-)-9d), the inhibition constant (Ki) in assay [1] is 7.24 nM.
On to `O=C1CC(CN2CCC(c3noc4cc(F)ccc34)CC2)Cc2ccccc21` (stereo in doubt; (+)-7d), for which the inhibitory constant (Ki) was 29.5 nM in assay [1] and 661 nM in assay [2].
On to `COc1cc2c(cc1OC)C(=O)CC(CN1CCN(c3ccccn3)CC1)C2` (racemic), for which the Ki in assay [1] was 661 nM; in assay [2], greater than 10000 nM.
Regarding `COc1ccc2c(c1)CC(CN1CCC(C(=O)c3ccc(F)cc3)CC1)CC2=O` (racemic), the figures for the Ki in assay [1] and in assay [2] were 17.8 nM and 1170 nM, respectively.
Regarding `COc1ccc2c(c1)CC(CN1CCC(C(=O)c3ccc(F)cc3)CC1)CC2=O` (single isomer, unassigned; (+)), the inhibition constant (Ki) in assay [1] is 11.2 nM; in assay [2], 1100 nM.
As for `O=C1CC(CN2CCC(C(=O)c3ccc(F)cc3)CC2)Cc2ccccc21` (stereo in doubt; (-)-7c), the results for the Ki in assay [1] and in assay [2] were 5.89 nM and 776 nM, respectively.
Consider `COc1cc2c(cc1OC)C(=O)CC(CN1CCN(c3ccccc3OC)CC1)C2` (racemic), for which the inhibition constant Ki in assay [1] is 2340 nM; in assay [2], greater than 10000 nM.
Take `COc1ccc2c(c1)CC(CN1CCC(c3noc4cc(F)ccc34)CC1)CC2=O` (racemic): in assay [2], the inhibition constant (Ki) was 1620 nM.
On to `O=C1CC(CN2CCC(c3noc4cc(F)ccc34)CC2)Cc2ccccc21` (stereo in doubt; (-)-7d), for which the inhibition constant Ki in assay [1] is 6.31 nM; in assay [2], 832 nM.
With `COc1ccc2c(c1)CC(CN1CCC(c3noc4cc(F)ccc34)CC1)CC2=O` (single isomer, unassigned; (+)), the Ki in assay [1] was 1.48 nM; in assay [2], 513 nM.
`O=C1CC(CN2CCC(C(=O)c3ccc(F)cc3)CC2)Cc2ccccc21` (stereo in doubt; (+)-7c): the Ki in assay [1] was 23.4 nM; in assay [2], 490 nM.
Take `O=C1CC(CN2CCN(c3ccccn3)CC2)Cc2ccccc21` (racemic): the Ki in assay [1] was 977 nM; in assay [2] it was 3310 nM.

Values taken from ChEMBL document CHEMBL1149215, “Chemoenzymatic synthesis and binding affinity of novel (R)- and (S)-3-aminomethyl-1-tetralones, potential atypical antipsychotics” (Bioorg Med Chem Lett, 2004).
